Reference: ChEMBL document CHEMBL1137463, “Discovery and structure-activity relationships of new steroidal compounds bearing a carboxy-terminal side chain as androgen receptor pure antagonists” (Bioorg Med Chem Lett, 2007)

Legend:
Androgen receptor [1] = target: T1, Androgen receptor (Homo sapiens, UniProt P10275)
T1 sequence (P10275 whole entry): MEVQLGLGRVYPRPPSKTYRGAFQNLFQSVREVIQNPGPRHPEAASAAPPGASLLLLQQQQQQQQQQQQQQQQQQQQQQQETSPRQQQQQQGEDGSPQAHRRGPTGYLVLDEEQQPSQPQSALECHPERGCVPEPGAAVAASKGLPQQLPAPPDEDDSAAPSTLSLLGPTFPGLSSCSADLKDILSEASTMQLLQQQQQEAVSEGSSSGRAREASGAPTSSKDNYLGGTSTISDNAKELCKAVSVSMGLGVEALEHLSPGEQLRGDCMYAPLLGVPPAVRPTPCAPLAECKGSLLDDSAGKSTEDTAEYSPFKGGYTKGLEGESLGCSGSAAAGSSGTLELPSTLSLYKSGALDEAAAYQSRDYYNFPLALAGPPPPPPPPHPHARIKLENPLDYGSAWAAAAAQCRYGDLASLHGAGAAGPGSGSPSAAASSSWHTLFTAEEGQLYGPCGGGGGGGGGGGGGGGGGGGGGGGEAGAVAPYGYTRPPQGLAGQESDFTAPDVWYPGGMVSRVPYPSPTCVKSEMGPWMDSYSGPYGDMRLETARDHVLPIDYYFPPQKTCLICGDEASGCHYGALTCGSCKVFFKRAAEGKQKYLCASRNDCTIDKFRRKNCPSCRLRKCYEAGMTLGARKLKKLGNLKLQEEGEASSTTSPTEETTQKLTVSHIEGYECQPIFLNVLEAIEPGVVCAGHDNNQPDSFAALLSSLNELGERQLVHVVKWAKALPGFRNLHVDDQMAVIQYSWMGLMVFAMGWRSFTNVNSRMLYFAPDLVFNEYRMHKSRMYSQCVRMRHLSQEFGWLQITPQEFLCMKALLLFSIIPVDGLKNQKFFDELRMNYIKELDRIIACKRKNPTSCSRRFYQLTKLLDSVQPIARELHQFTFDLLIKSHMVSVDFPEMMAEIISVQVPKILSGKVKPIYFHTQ
Description: Antagonist activity at human androgen receptor expressed in HeLa cells assessed as inhibition of dihydrotestosterone induced transcriptional activity by reporter gene assay

[2] = target: T2, Androgen receptor (Homo sapiens) (UniProt P10275); conditions: HeLa
T2 sequence (whole entry): T1 sequence (P10275 whole entry)
Description: Agonist activity at human androgen receptor expressed in HeLa cells assessed as five times increase in transcriptional activity by reporter gene assay

Androgen receptor [3] = target: T1, Androgen receptor; test: biochemical
Description: Displacement of [3H]mibolerone from human androgen receptor expressed in CHOK1 cells

Mus musculus [4] = test: Inhibition of testosterone propionate-stimulated seminal vesicle weight gain in castrated mouse at 1 mg/body, sc; assay type: functional
Mus musculus [5] = test: Inhibition of testosterone propionate-stimulated seminal vesicle weight gain in castrated mouse at 3 mg/body, sc; assay type: functional
Mus musculus [6] = test: Inhibition of testosterone propionate-stimulated seminal vesicle weight gain in castrated mouse at 10 mg/body, sc; assay type: functional

Row | Compound | IC50 (Androgen receptor [1]) [µM] | FI5 [2] [nM] | IC50 (Androgen receptor [3]) [µM] | Inhibition (Mus musculus [4]) [%] | Inhibition (Mus musculus [5]) [%] | Inhibition (Mus musculus [6]) [%]
1 | C[C@]12CCC(=O)C=C1C[C@@H](CCCCc1ccc(OCCCCC(=O)O)cc1)[C@@H]1[C@@H]2CC[C@@]2(C)[C@H]1CC[C@]2(C)O | 0.25 | 2000 | 0.096 |  |  | 
2 | C[C@]12CCC(=O)C=C1C[C@@H](CCCCc1cccc(OCCCC(=O)O)c1)[C@@H]1[C@@H]2CC[C@@]2(C)[C@H]1CC[C@]2(C)O | 0.92 | > 10000 | 0.67 |  |  | 
3 | C[C@]12CCC(=O)C=C1C[C@@H](CCCc1ccc(OCCCC(=O)O)cc1)[C@@H]1[C@@H]2CC[C@@]2(C)[C@H]1CC[C@]2(C)O | 0.66 | > 10000 | 0.43 |  |  | 
4 | C[C@]12CCC(=O)C=C1C[C@@H](CCCCc1cccc(OCCCCCC(=O)O)c1)[C@@H]1[C@@H]2CC[C@@]2(C)[C@H]1CC[C@]2(C)O | 0.53 | > 10000 | 0.12 |  |  | 
5 | C[C@]12CCC(=O)C[C@@H]1C[C@@H](CCCCCCCCCC(=O)O)[C@@H]1[C@@H]2CC[C@]2(C)[C@@H](O)CC[C@@H]12 | 0.92 | 120 | 0.35 |  |  | 
6 | CN(C)C(=O)CCCCCCC[C@@H]1C[C@H]2CC(=O)CC[C@]2(C)[C@H]2CC[C@]3(C)[C@@H](O)CC[C@H]3[C@H]12 | 0.19 | > 10000 | 0.26 |  |  | 
7 | C[C@]12CCC(=O)C=C1C[C@@H](CCCCc1ccc(OCCCCCC(=O)O)cc1)[C@@H]1[C@@H]2CC[C@@]2(C)[C@H]1CC[C@]2(C)O | 0.42 | 100 |  |  |  | 
8 | C[C@]12CCC(=O)C=C1C[C@@H](CCCc1ccc(OCCC(=O)O)cc1)[C@@H]1[C@@H]2CC[C@@]2(C)[C@H]1CC[C@]2(C)O | 0.17 | 2500 | 0.3 |  |  | 
9 | CC(C)(O)C(=O)Nc1ccc([N+](=O)[O-])c(C(F)(F)F)c1 [HYDROXYFLUTAMIDE] |  | 1000 |  | 6.7 | 0.8 | 6.4
10 | C[C@]12CCC(=O)C[C@@H]1C[C@@H](CCCCCCCCC(CCCC(F)(F)C(F)(F)F)C(=O)O)[C@@H]1[C@@H]2CC[C@]2(C)[C@@H](O)CC[C@@H]12 (stereo not given in full) | > 10 | 13 | 0.41 |  |  | 
11 | C[C@]12CCC(=O)C=C1C[C@@H](CCCCc1cccc(OCCCCC(=O)O)c1)[C@@H]1[C@@H]2CC[C@@]2(C)[C@H]1CC[C@]2(C)O |  | > 10000 | 0.35 |  |  | 
12 | C[C@]12CCC(=O)C[C@@H]1C[C@@H](CCCCCCCC(=O)O)[C@@H]1[C@@H]2CC[C@]2(C)[C@@H](O)CC[C@@H]12 | 0.73 | 110 | 0.66 |  |  | 
13 | C[C@]12CCC(=O)C=C1C[C@@H](CCCCc1ccc(OCCCC(=O)O)cc1)[C@@H]1[C@@H]2CC[C@@]2(C)[C@H]1CC[C@]2(C)O | 0.85 | 170 |  |  |  | 
14 | C[C@]12CCC(=O)C=C1C[C@@H](CCCCCCCCCC(=O)O)[C@@H]1[C@@H]2CC[C@@]2(C)[C@H]1CC[C@]2(C)O | 2 | > 10000 | 0.6 |  |  | 
15 | C[C@]12CCC(=O)C=C1C[C@@H](CCCc1cccc(OCCCC(=O)O)c1)[C@@H]1[C@@H]2CC[C@@]2(C)[C@H]1CC[C@]2(C)O | 5.8 | 1500 |  |  |  | 
16 | C[C@]12CCC(=O)C=C1C[C@@H](CCCc1ccc(OCCCCC(=O)O)cc1)[C@@H]1[C@@H]2CC[C@@]2(C)[C@H]1CC[C@]2(C)O | 0.3 | 3200 | 0.66 |  |  | 
